Here are results for 37 compounds from ChEMBL document CHEMBL1135265, “Squaric acid derivatives as VLA-4 integrin antagonists” (Bioorg Med Chem Lett, 2002).

In series [1] the target is T1, Integrin alpha-4/beta-1 (Homo sapiens, UniProt P05556+P13612). In words: Inhibition of binding of Very late antigen 4/vascular cell adhesion molecule 1 in a protein-based ligand binding assay. The format is protein-complex assay.
Series [2] has as its target T1, Integrin alpha-4/beta-1. In words: Inhibition of binding of Very late antigen 4/vascular cell adhesion molecule 1 in a cell based ligand binding assay (Jurkat cells).
Series [3] in a line: Rate constant (k) of clearance from isolated perfused rat liver (IPRL). The format is ADME.
Series [4] addresses T1, Integrin alpha-4/beta-1. Nature of the series: Inhibition of Jurkat cell VLA-4 adhesion to VCAM-1. It counts as cell-based.
The target of series [5] is T1, Integrin alpha-4/beta-1. Nature of the series: Inhibition of very late antigen-4 (VLA-4)/vascular cell adhesion molecule-1(VCAM -1) interaction. It counts as protein-complex assay.

T1 sequence (P05556 whole entry): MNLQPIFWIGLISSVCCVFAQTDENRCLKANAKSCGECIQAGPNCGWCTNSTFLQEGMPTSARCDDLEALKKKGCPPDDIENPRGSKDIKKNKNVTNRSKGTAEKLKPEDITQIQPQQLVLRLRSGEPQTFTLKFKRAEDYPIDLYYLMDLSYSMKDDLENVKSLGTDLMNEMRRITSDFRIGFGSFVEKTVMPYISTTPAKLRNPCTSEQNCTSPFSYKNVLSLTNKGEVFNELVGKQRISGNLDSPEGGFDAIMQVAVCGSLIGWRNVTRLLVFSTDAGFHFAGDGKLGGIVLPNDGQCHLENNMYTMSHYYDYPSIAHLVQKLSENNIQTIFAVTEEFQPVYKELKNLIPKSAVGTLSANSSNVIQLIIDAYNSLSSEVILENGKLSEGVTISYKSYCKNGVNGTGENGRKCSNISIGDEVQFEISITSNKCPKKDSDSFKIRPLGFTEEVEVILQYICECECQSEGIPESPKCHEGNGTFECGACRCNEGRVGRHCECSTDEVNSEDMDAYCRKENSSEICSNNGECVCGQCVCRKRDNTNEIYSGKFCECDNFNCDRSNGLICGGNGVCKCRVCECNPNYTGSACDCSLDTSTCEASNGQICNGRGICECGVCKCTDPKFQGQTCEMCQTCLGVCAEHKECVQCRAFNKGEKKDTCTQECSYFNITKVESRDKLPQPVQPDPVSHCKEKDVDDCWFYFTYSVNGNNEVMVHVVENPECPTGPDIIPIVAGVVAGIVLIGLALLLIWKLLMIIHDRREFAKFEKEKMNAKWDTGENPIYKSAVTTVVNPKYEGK
T1 sequence (P13612 whole entry): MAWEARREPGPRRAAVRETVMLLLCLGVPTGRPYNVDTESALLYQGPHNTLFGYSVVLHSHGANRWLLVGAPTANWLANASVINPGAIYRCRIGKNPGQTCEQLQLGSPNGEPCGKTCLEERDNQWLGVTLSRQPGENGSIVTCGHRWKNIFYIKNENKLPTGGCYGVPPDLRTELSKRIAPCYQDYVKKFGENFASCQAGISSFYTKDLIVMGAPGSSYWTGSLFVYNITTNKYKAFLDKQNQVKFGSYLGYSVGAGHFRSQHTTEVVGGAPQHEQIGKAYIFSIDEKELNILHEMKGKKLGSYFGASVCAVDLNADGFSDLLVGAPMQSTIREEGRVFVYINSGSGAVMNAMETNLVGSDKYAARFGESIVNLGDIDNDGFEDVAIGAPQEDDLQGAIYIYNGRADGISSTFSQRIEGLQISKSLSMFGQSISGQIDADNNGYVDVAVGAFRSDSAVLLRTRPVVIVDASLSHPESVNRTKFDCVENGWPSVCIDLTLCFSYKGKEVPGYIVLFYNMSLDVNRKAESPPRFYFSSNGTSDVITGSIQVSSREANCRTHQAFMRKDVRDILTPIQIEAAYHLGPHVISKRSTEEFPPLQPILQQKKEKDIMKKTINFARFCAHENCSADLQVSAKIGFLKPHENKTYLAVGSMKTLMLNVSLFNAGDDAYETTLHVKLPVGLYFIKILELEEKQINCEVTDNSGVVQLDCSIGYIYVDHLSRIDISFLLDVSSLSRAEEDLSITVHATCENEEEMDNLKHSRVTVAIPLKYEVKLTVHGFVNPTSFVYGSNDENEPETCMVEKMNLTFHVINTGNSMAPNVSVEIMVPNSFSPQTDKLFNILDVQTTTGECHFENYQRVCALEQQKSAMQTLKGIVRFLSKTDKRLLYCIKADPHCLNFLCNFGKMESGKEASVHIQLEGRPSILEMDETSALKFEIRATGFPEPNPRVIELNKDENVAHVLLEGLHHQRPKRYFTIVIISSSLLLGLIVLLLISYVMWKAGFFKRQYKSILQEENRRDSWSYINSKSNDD

On to `CN(C)c1c(N[C@@H](Cc2ccc(NC(=O)c3c(Cl)cncc3Cl)cc2)C(=O)O)c(=O)c1=O`, for which the half-maximal inhibitory concentration (IC50) worked out at 0.5 nM at Integrin alpha-4/beta-1 [1] and 590 nM on Integrin alpha-4/beta-1 [2]. Further, the k el in series [3] was 0.00128 s⁻¹.

Turning to `CCCCC/N=c1\c(O)c(O)\c1=N/[C@@H](Cc1ccc(NC(=O)c2c(Cl)cncc2Cl)cc1)C(=O)O`, the IC50 at Integrin alpha-4/beta-1 [1] worked out at 1 nM; on Integrin alpha-4/beta-1 [2], 225 nM. Also, the k el in series [3] was 0.00025 s⁻¹.

Take `O=C(Nc1ccc(C[C@H](/N=c2/c(N3CCCCC3)c(O)c2=O)C(=O)O)cc1)c1c(Cl)cncc1Cl`: the concentration for half-maximal inhibition (IC50) was determined as 0.4 nM on Integrin alpha-4/beta-1 [1] and 8.4 nM at Integrin alpha-4/beta-1 [2]. In series [3], this compound gave a k el of 0.00131 s⁻¹.

Take `CCCN(C)c1c(N[C@@H](Cc2ccc(NC(=O)c3c(Cl)cncc3Cl)cc2)C(=O)O)c(=O)c1=O`: the IC50 was 0.2 nM at Integrin alpha-4/beta-1 [1] and 13 nM on Integrin alpha-4/beta-1 [2]. For the same compound, the k el in series [3] is 0.00125 s⁻¹.

In the case of `CCC/N=c1\c(O)c(O)\c1=N/[C@@H](Cc1ccc(NC(=O)c2c(Cl)cncc2Cl)cc1)C(=O)O`, the 50% inhibitory concentration (IC50) on Integrin alpha-4/beta-1 [1] turned out to be 1.5 nM; on Integrin alpha-4/beta-1 [2], 120 nM. In series [3], this compound had a k el of 2.78e-05 s⁻¹.

For `CCCC(C)/N=c1\c(O)c(O)\c1=N/[C@@H](Cc1ccc(NC(=O)c2c(Cl)cncc2Cl)cc1)C(=O)O` (stereo partly drawn), the 50% inhibitory concentration (IC50) was 0.6 nM on Integrin alpha-4/beta-1 [1] and 50 nM at Integrin alpha-4/beta-1 [2]. In series [3], this compound gave a k el of 0.000667 s⁻¹.

In the case of `O=C(Nc1ccc(C[C@H](/N=c2\c(O)c(O)\c2=N/C2CCC2)C(=O)O)cc1)c1c(Cl)cncc1Cl`, the IC50 at Integrin alpha-4/beta-1 [1] came to 2.6 nM; at Integrin alpha-4/beta-1 [2] it was 155 nM. Also, the k el in series [3] is 0.000139 s⁻¹.

In the case of `CC(C)/N=c1\c(O)c(O)\c1=N/[C@@H](Cc1ccc(NC(=O)c2c(Cl)cncc2Cl)cc1)C(=O)O`, the IC50 on Integrin alpha-4/beta-1 [1] stood at 1 nM; on Integrin alpha-4/beta-1 [2] it was 95 nM. In addition, the k el in series [3] was 0.000722 s⁻¹.

As for `CCN(CC)c1c(N[C@@H](Cc2ccc(NC(=O)c3c(Cl)cncc3Cl)cc2)C(=O)O)c(=O)c1=O`, the IC50 was determined as 0.4 nM on Integrin alpha-4/beta-1 [1] and 3.5 nM at Integrin alpha-4/beta-1 [2]. In series [3], the k el is 0.00161 s⁻¹.

As to `CCCCN(CCCC)c1c(N[C@@H](Cc2ccc(NC(=O)c3c(Cl)cncc3Cl)cc2)C(=O)O)c(=O)c1=O`, the IC50 amounted to 2 nM on Integrin alpha-4/beta-1 [1] and 5.7 nM on Integrin alpha-4/beta-1 [2]. In series [3], this compound gave a k el of 0.00183 s⁻¹.

For `C=CC/N=c1\c(O)c(O)\c1=N/[C@@H](Cc1ccc(NC(=O)c2c(Cl)cncc2Cl)cc1)C(=O)O`, the half-maximal inhibitory concentration (IC50) on Integrin alpha-4/beta-1 [1] was 1 nM; on Integrin alpha-4/beta-1 [2] it was 120 nM. In series [3], this compound showed a k el of 0.000111 s⁻¹.

Take `CCN(CC)c1c(N[C@@H](Cc2ccc(-c3ccccc3OC)cc2)C(=O)O)c(=O)c1=O`: the values for the half-inhibitory concentration (IC50) at Integrin alpha-4/beta-1 [1] and on Integrin alpha-4/beta-1 [2] were 1.2 nM and 1160 nM, respectively. This compound also showed a k el in series [3] of 0.000611 s⁻¹.

With `CCC/N=c1\c(O)c(O)\c1=N/[C@@H](Cc1ccc(OCc2c(Cl)cccc2Cl)cc1)C(=O)O`, the IC50 at Integrin alpha-4/beta-1 [4] amounted to 18300 nM; against Integrin alpha-4/beta-1 [5], 67 nM.

Consider `CC(C)(C)/N=c1\c(O)c(O)\c1=N/[C@@H](Cc1ccc(NC(=O)c2c(Cl)cncc2Cl)cc1)C(=O)O`, for which the half-maximal inhibitory concentration (IC50) on Integrin alpha-4/beta-1 [1] is 3.5 nM; on Integrin alpha-4/beta-1 [2], 690 nM. In series [3], the k el is 0.000972 s⁻¹.

Turning to `CCC/N=c1\c(O)c(O)\c1=N/[C@@H](Cc1ccc(-c2ccccc2OC)cc1)C(=O)O`, the results for the half-maximal inhibitory concentration (IC50) at Integrin alpha-4/beta-1 [1] and on Integrin alpha-4/beta-1 [2] were 6.7 nM and 10800 nM, respectively.

For `O=C(Nc1ccc(C[C@H](/N=c2\c(O)c(O)\c2=N/Cc2ccccc2)C(=O)O)cc1)c1c(Cl)cncc1Cl`, the IC50 worked out at 3.7 nM on Integrin alpha-4/beta-1 [1] and 320 nM at Integrin alpha-4/beta-1 [2]. Further, the k el in series [3] was 0.00117 s⁻¹.

As to `O=C(Nc1ccc(C[C@H](/N=c2\c(O)c(O)\c2=N/c2ccccc2)C(=O)O)cc1)c1c(Cl)cncc1Cl`, the concentration for half-maximal inhibition (IC50) came to 50 nM on Integrin alpha-4/beta-1 [1] and 845 nM at Integrin alpha-4/beta-1 [2]. The same compound showed a k el in series [3] of 0.000306 s⁻¹.

Turning to `O=C(Nc1ccc(C[C@H](/N=c2\c(O)c(O)\c2=N/C2CC2)C(=O)O)cc1)c1c(Cl)cncc1Cl`, the IC50 at Integrin alpha-4/beta-1 [1] came out at 1.5 nM; on Integrin alpha-4/beta-1 [2] it was 250 nM. This compound showed a k el in series [3] of 0.000444 s⁻¹.

In turn, `O=C(Nc1ccc(C[C@H](/N=c2\c(O)c(O)\c2=N/CCC(F)(F)F)C(=O)O)cc1)c1c(Cl)cncc1Cl` showed an IC50 at Integrin alpha-4/beta-1 [2] of 90 nM. The compound also showed a k el in series [3] of 0.000389 s⁻¹.

In the case of `CCC/N=c1\c(O)c(O)\c1=N/[C@@H](Cc1ccc(-c2c(OC)cccc2OC)cc1)C(=O)O`, the IC50 on Integrin alpha-4/beta-1 [1] was 2.1 nM; at Integrin alpha-4/beta-1 [2] it was 710 nM. The compound further gave a k el in series [3] of 0.000194 s⁻¹.

Regarding `COCC/N=c1\c(O)c(O)\c1=N/[C@@H](Cc1ccc(NC(=O)c2c(Cl)cncc2Cl)cc1)C(=O)O`, the half-maximal inhibitory concentration (IC50) stood at 1.2 nM at Integrin alpha-4/beta-1 [1] and 75 nM at Integrin alpha-4/beta-1 [2]. For the same compound, the k el in series [3] was 0.0005 s⁻¹.

Consider `O=C(Nc1ccc(C[C@H](/N=c2/c(N3CCSCC3)c(O)c2=O)C(=O)O)cc1)c1c(Cl)cncc1Cl`, for which the half-inhibitory concentration (IC50) was determined as 0.3 nM on Integrin alpha-4/beta-1 [1] and 3.1 nM at Integrin alpha-4/beta-1 [2]. In addition, the k el in series [3] was 0.00158 s⁻¹.

With `O=C(Nc1ccc(C[C@H](/N=c2\c(O)c(O)\c2=N/C2CCCC2)C(=O)O)cc1)c1c(Cl)cncc1Cl`, the half-inhibitory concentration (IC50) on Integrin alpha-4/beta-1 [1] was determined as 9 nM; at Integrin alpha-4/beta-1 [2] it was 290 nM. The same compound showed a k el in series [3] of 0.000139 s⁻¹.

With `O=C(Nc1ccc(C[C@H](/N=c2/c(N3CCNCC3)c(O)c2=O)C(=O)O)cc1)c1c(Cl)cncc1Cl`, the IC50 at Integrin alpha-4/beta-1 [1] worked out at 0.4 nM; at Integrin alpha-4/beta-1 [2] it was 40 nM. In series [3], the k el is 0.00125 s⁻¹.

Consider `CCN(CC)c1c(N[C@@H](Cc2ccc(-c3c(OC)cccc3OC)cc2)C(=O)O)c(=O)c1=O`, for which the IC50 came out at 0.6 nM at Integrin alpha-4/beta-1 [1] and 180 nM on Integrin alpha-4/beta-1 [2]. In addition, in series [3], the k el was 0.00108 s⁻¹.

Regarding `O=C(Nc1ccc(C[C@H](/N=c2\c(O)c(O)\c2=N/CCCC(F)(F)F)C(=O)O)cc1)c1c(Cl)cncc1Cl`, the IC50 came out at 1 nM at Integrin alpha-4/beta-1 [1] and 370 nM at Integrin alpha-4/beta-1 [2]. For the same compound, the k el in series [3] was 0.000306 s⁻¹.

`C/N=c1\c(O)c(O)\c1=N/[C@@H](Cc1ccc(NC(=O)c2c(Cl)cncc2Cl)cc1)C(=O)O`: the half-inhibitory concentration (IC50) came to 0.9 nM on Integrin alpha-4/beta-1 [1] and 990 nM on Integrin alpha-4/beta-1 [2]. The k el in series [3] was 0.00025 s⁻¹.

For `CCCC/N=c1\c(O)c(O)\c1=N/[C@@H](Cc1ccc(NC(=O)c2c(Cl)cncc2Cl)cc1)C(=O)O`, the IC50 is 0.4 nM at Integrin alpha-4/beta-1 [1] and 130 nM on Integrin alpha-4/beta-1 [2]. Further, the k el in series [3] is 0.000361 s⁻¹.

For `O=C(Nc1ccc(C[C@H](/N=c2/c(N3CCOCC3)c(O)c2=O)C(=O)O)cc1)c1c(Cl)cncc1Cl`, the IC50 at Integrin alpha-4/beta-1 [1] stood at 0.5 nM; at Integrin alpha-4/beta-1 [2], 11 nM. Moreover, the k el in series [3] was 0.00139 s⁻¹.

Consider `CCN(C)c1c(N[C@@H](Cc2ccc(NC(=O)c3c(Cl)cncc3Cl)cc2)C(=O)O)c(=O)c1=O`, for which the IC50 on Integrin alpha-4/beta-1 [1] was found to be 0.2 nM; at Integrin alpha-4/beta-1 [2], 100 nM. In series [3], this compound showed a k el of 0.00136 s⁻¹.

Take `CCN1CCN(c2c(N[C@@H](Cc3ccc(NC(=O)c4c(Cl)cncc4Cl)cc3)C(=O)O)c(=O)c2=O)CC1`: the half-inhibitory concentration (IC50) at Integrin alpha-4/beta-1 [1] turned out to be 0.5 nM; on Integrin alpha-4/beta-1 [2], 60 nM. This compound had a k el in series [3] of 0.00103 s⁻¹.

Turning to `CC(C)C/N=c1\c(O)c(O)\c1=N/[C@@H](Cc1ccc(NC(=O)c2c(Cl)cncc2Cl)cc1)C(=O)O`, the values for the half-inhibitory concentration (IC50) at Integrin alpha-4/beta-1 [1] and at Integrin alpha-4/beta-1 [2] were 0.5 nM and 85 nM, respectively. For the same compound, the k el in series [3] was 0.000361 s⁻¹.

Take `CCC/N=c1\c(O)c(O)\c1=N/[C@@H](Cc1ccc(Oc2ncccn2)cc1)C(=O)O`: the IC50 on Integrin alpha-4/beta-1 [1] was found to be 6.9 nM; at Integrin alpha-4/beta-1 [2] it was 8200 nM. For the same compound, the k el in series [3] was 0.000167 s⁻¹.

As for `CC/N=c1\c(O)c(O)\c1=N/[C@@H](Cc1ccc(NC(=O)c2c(Cl)cncc2Cl)cc1)C(=O)O`, the IC50 on Integrin alpha-4/beta-1 [1] came to 0.6 nM; at Integrin alpha-4/beta-1 [2], 425 nM. This compound also gave a k el in series [3] of 0.000556 s⁻¹.

Regarding `CCN(CC)c1c(N[C@@H](Cc2ccc(OCc3c(Cl)cccc3Cl)cc2)C(=O)O)c(=O)c1=O`, the half-inhibitory concentration (IC50) turned out to be 25 nM on Integrin alpha-4/beta-1 [1] and 12400 nM on Integrin alpha-4/beta-1 [2]. Besides, the k el in series [3] was 0.00108 s⁻¹.

As for `CCN(CC)c1c(N[C@@H](Cc2ccc(Oc3ncccn3)cc2)C(=O)O)c(=O)c1=O`, the figures for the 50% inhibitory concentration (IC50) on Integrin alpha-4/beta-1 [1] and at Integrin alpha-4/beta-1 [2] were 1.5 nM and 2300 nM, respectively. In series [3], the k el was 0.00075 s⁻¹.

In the case of `CCC(C)/N=c1\c(O)c(O)\c1=N/[C@@H](Cc1ccc(NC(=O)c2c(Cl)cncc2Cl)cc1)C(=O)O` (stereo partly drawn), the IC50 on Integrin alpha-4/beta-1 [1] is 0.5 nM; on Integrin alpha-4/beta-1 [2], 160 nM. Also, in series [3], the k el was 0.000861 s⁻¹.
